Test system: highly glycopeptide-resistant enterococci
Details: summary of Table III

Compound	in vitro activity against highly glycopeptide-resistant enterococci (in words)
CN[C@H](CC(C)C)C(=O)N[C@H]1C(=O)N[C@@H](CC(N)=O)C(=O)N[C@H]2C(=O)N[C@H]3C(=O)N[C@H](C(=O)N[C@H](C(=O)O)c4cc(O)cc(O)c4-c4cc3ccc4O)[C@H](O)c3ccc(c(Cl)c3)Oc3cc2cc(c3O[C@@H]2O[C@H](CO)[C@@H](O)[C@H](O)[C@H]2O[C@H]2C[C@](C)(N)[C@H](O)[C@H](C)O2)Oc2ccc(cc2Cl)[C@H]1O [vancomycin]	highly resistant
Teicoplanin	highly resistant

Source: EP0596929B1, “AMIDE DERIVATIVES OF ANTIBIOTIC A 40926” (GRUPPO LEPETIT S.p.A., priority 1991, dated 1993)
